Experimental data as given in ChEMBL document CHEMBL1201862, “PubChem BioAssay data set” (2004).
Several values for one entry are separate records, joined by “and”; a condition that tells them apart may be missing. Equal entries are not always repeated.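 Tested at 5 concentrations; 48 h exposure; 96-well plates; endpoints linearly interpolated, else capped at highest concentration. The concentration for 50% growth inhibition is given as GI50.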 Activity calls are given as the source filed them. Cut-off read from the data, not from the text of the source: active = GI50 up to about 1.1 µM and inactive = higher.

Tests used:
Experiment in all cases: growth of human tumour cells (NCI), 48 h
IGROV-1 = tested on: IGROV-1
SK-MEL-5 = tested on: SK-MEL-5
HCT-15 = tested on: HCT-15
UACC-257 = tested on: UACC-257
NCI-H522 = tested on: NCI-H522
ACHN = tested on: ACHN
OVCAR-4 = tested on: OVCAR-4
PC-3 = tested on: PC-3
A549 = tested on: A549
UACC-62 = tested on: UACC-62
HCC 2998 = tested on: HCC 2998
SK-MEL-28 = tested on: SK-MEL-28
Malme-3M = tested on: Malme-3M
SK-OV-3 = tested on: SK-OV-3
OVCAR-3 = tested on: OVCAR-3
HCT-116 = tested on: HCT-116
CAKI-1 = tested on: CAKI-1
MCF7 = tested on: MCF7
SNB-75 = tested on: SNB-75
SR = tested on: SR
NCI/ADR-RES = tested on: NCI/ADR-RES
MDA-MB-435 = tested on: MDA-MB-435
LOX IMVI = tested on: LOX IMVI
EKVX = tested on: EKVX
A498 = tested on: A498
SF-295 = tested on: SF-295
DU-145 = tested on: DU-145
HT-29 = tested on: HT-29
RXF 393 = tested on: RXF 393
HOP-62 = tested on: HOP-62
786-0 = tested on: 786-0
MDA-N = tested on: MDA-N
SF-268 = tested on: SF-268
RPMI-8226 = tested on: RPMI-8226
NCI-H23 = tested on: NCI-H23
OVCAR-5 = tested on: OVCAR-5
U-251 = tested on: U-251
K562 = tested on: K562
NCI-H460 = tested on: NCI-H460
SNB-19 = tested on: SNB-19
M14 = tested on: M14
UO-31 = tested on: UO-31
SW-620 = tested on: SW-620
Hs-578T = tested on: Hs-578T
BT-549 = tested on: BT-549
NCI-H226 = tested on: NCI-H226
COLO 205 = tested on: COLO 205
MOLT-4 = tested on: MOLT-4
HL-60 = tested on: HL-60
KM12 = tested on: KM12
OVCAR-8 = tested on: OVCAR-8
MDA-MB-231 = tested on: MDA-MB-231
TK-10 = tested on: TK-10
HOP-92 = tested on: HOP-92
CCRF-CEM = tested on: CCRF-CEM
SK-MEL-2 = tested on: SK-MEL-2
SN12C = tested on: SN12C
SF-539 = tested on: SF-539
T47D = tested on: T47D

N/C(=N\c1cccc(Cl)c1)c1ccccc1N
GI50 (IGROV-1): > 100 µM (inactive) | GI50 (SK-MEL-5): > 100 µM (inactive) | GI50 (HCT-15): > 100 µM | GI50 (UACC-257): > 100 µM (inactive) | GI50 (NCI-H522): > 100 µM (inactive) | GI50 (ACHN): > 100 µM (inactive) | GI50 (OVCAR-4): > 100 µM (inactive) | GI50 (PC-3): > 100 µM (inactive) | GI50 (A549): > 100 µM (inactive) | GI50 (UACC-62): > 100 µM (inactive) | GI50 (HCC 2998): > 100 µM (inactive) | GI50 (SK-MEL-28): > 100 µM (inactive) | GI50 (Malme-3M): > 100 µM (inactive) | GI50 (SK-OV-3): > 100 µM (inactive) | GI50 (OVCAR-3): > 100 µM (inactive) | GI50 (HCT-116): > 100 µM (inactive) | GI50 (CAKI-1): > 100 µM (inactive) | GI50 (MCF7): > 100 µM (inactive) | GI50 (SNB-75): > 100 µM (inactive) | GI50 (SR): > 100 µM (inactive) | GI50 (NCI/ADR-RES): > 100 µM (inactive) | GI50 (MDA-MB-435): > 100 µM (inactive) | GI50 (LOX IMVI): > 100 µM (inactive) | GI50 (EKVX): > 100 µM (inactive) | GI50 (A498): > 100 µM (inactive) | GI50 (SF-295): > 100 µM (inactive) | GI50 (DU-145): > 100 µM (inactive) | GI50 (HT-29): > 100 µM (inactive) | GI50 (RXF 393): > 100 µM (inactive) | GI50 (HOP-62): > 100 µM (inactive) | GI50 (786-0): > 100 µM (inactive) | GI50 (MDA-N): > 100 µM (inactive) | GI50 (SF-268): > 100 µM (inactive) | GI50 (RPMI-8226): > 100 µM (inactive) | GI50 (NCI-H23): > 100 µM (inactive) | GI50 (OVCAR-5): > 100 µM (inactive) | GI50 (U-251): > 100 µM (inactive) | GI50 (K562): > 100 µM (inactive) | GI50 (NCI-H460): > 100 µM (inactive) | GI50 (SNB-19): > 100 µM (inactive) | GI50 (M14): > 100 µM (inactive) | GI50 (UO-31): > 100 µM (inactive) | GI50 (SW-620): > 100 µM (inactive) | GI50 (Hs-578T): > 100 µM (inactive) | GI50 (BT-549): > 100 µM (inactive) | GI50 (NCI-H226): > 100 µM (inactive) | GI50 (COLO 205): > 100 µM (inactive) | GI50 (MOLT-4): > 100 µM (inactive) | GI50 (HL-60): > 100 µM (inactive) | GI50 (KM12): > 100 µM (inactive) | GI50 (OVCAR-8): > 100 µM (inactive) | GI50 (MDA-MB-231): > 100 µM (inactive) | GI50 (TK-10): > 100 µM (inactive)

CC(=O)c1c(-c2cccc3ccccc23)c(C#N)c(=S)n(C2OC(CO)C(O)C(O)C2O)c1C (stereo not given)
GI50 (IGROV-1): > 100 µM (inactive) | GI50 (SK-MEL-5): > 100 µM (inactive) | GI50 (HCT-15): > 100 µM | GI50 (UACC-257): 69 µM (inactive) | GI50 (NCI-H522): > 100 µM (inactive) | GI50 (ACHN): > 100 µM (inactive) | GI50 (OVCAR-4): > 100 µM (inactive) | GI50 (PC-3): > 100 µM (inactive) | GI50 (A549): > 100 µM (inactive) | GI50 (UACC-62): 64.7 µM (inactive) | GI50 (HOP-92): 56.8 µM (inactive) | GI50 (HCC 2998): > 100 µM (inactive) | GI50 (SK-MEL-28): > 100 µM (inactive) | GI50 (SK-OV-3): > 100 µM (inactive) | GI50 (OVCAR-3): > 100 µM (inactive) | GI50 (HCT-116): > 100 µM (inactive) | GI50 (CAKI-1): 53.1 µM (inactive) | GI50 (MCF7): > 100 µM (inactive) | GI50 (CCRF-CEM): 56 µM (inactive) and 51.4 µM (inactive) | GI50 (SNB-75): > 100 µM (inactive) | GI50 (NCI/ADR-RES): 62.2 µM (inactive) | GI50 (LOX IMVI): > 100 µM (inactive) | GI50 (EKVX): 11.1 µM (inactive) | GI50 (A498): > 100 µM (inactive) | GI50 (SF-295): > 100 µM (inactive) | GI50 (DU-145): > 100 µM (inactive) | GI50 (HT-29): > 100 µM (inactive) | GI50 (RXF 393): 83.6 µM (inactive) | GI50 (HOP-62): 54.8 µM (inactive) | GI50 (786-0): > 100 µM (inactive) | GI50 (MDA-N): 50.1 µM (inactive) | GI50 (SF-268): > 100 µM (inactive) | GI50 (RPMI-8226): 53.2 µM (inactive) | GI50 (NCI-H23): > 100 µM (inactive) and 52.2 µM (inactive) | GI50 (OVCAR-5): > 100 µM (inactive) | GI50 (K562): 43.9 µM (inactive) and 71.6 µM (inactive) | GI50 (NCI-H460): > 100 µM (inactive) | GI50 (SK-MEL-2): > 100 µM (inactive) | GI50 (SNB-19): 59.7 µM (inactive) | GI50 (UO-31): 87.5 µM (inactive) | GI50 (SW-620): > 100 µM (inactive) | GI50 (Hs-578T): > 100 µM (inactive) | GI50 (BT-549): > 100 µM (inactive) | GI50 (NCI-H226): > 100 µM (inactive) | GI50 (COLO 205): > 100 µM (inactive) | GI50 (MOLT-4): 38.9 µM (inactive) and 49.3 µM (inactive) | GI50 (KM12): 79.1 µM (inactive) | GI50 (OVCAR-8): > 100 µM (inactive) | GI50 (SN12C): 81.3 µM (inactive) | GI50 (TK-10): > 100 µM (inactive)

Cc1ccc(S(=O)(=O)N2CCSCCN(S(=O)(=O)c3ccc(C)cc3)CCN(S(=O)(=O)c3ccc(C)cc3)CC2)cc1
GI50 (IGROV-1): 56.2 µM (inactive) | GI50 (SK-MEL-5): > 100 µM (inactive) | GI50 (OVCAR-4): > 100 µM (inactive) | GI50 (A549): > 100 µM (inactive) | GI50 (UACC-62): > 100 µM (inactive) | GI50 (HOP-92): 0.184 µM (active) | GI50 (HCC 2998): > 100 µM (inactive) | GI50 (SK-MEL-28): > 100 µM (inactive) | GI50 (SK-OV-3): 30.1 µM (inactive) | GI50 (OVCAR-3): > 100 µM (inactive) | GI50 (HCT-116): 78.5 µM (inactive) | GI50 (MCF7): 59.7 µM (inactive) | GI50 (CCRF-CEM): > 100 µM (inactive) | GI50 (NCI/ADR-RES): > 100 µM (inactive) | GI50 (MDA-MB-435): > 100 µM (inactive) | GI50 (EKVX): 47.5 µM (inactive) | GI50 (A498): 69.7 µM (inactive) | GI50 (SF-295): 26.4 µM (inactive) | GI50 (DU-145): > 100 µM (inactive) | GI50 (HT-29): > 100 µM (inactive) | GI50 (RXF 393): 27.9 µM (inactive) | GI50 (HOP-62): 20.7 µM (inactive) | GI50 (786-0): 16.7 µM (inactive) | GI50 (MDA-N): > 100 µM (inactive) | GI50 (SF-268): 16.7 µM (inactive) | GI50 (RPMI-8226): > 100 µM (inactive) | GI50 (NCI-H23): 79.4 µM (inactive) | GI50 (OVCAR-5): > 100 µM (inactive) | GI50 (U-251): 20 µM (inactive) | GI50 (K562): > 100 µM (inactive) | GI50 (NCI-H460): > 100 µM (inactive) | GI50 (SK-MEL-2): 25.9 µM (inactive) | GI50 (SNB-19): 29.2 µM (inactive) | GI50 (M14): > 100 µM (inactive) | GI50 (SF-539): 17.6 µM (inactive) | GI50 (UO-31): 92.7 µM (inactive) | GI50 (SW-620): > 100 µM (inactive) | GI50 (Hs-578T): 25.7 µM (inactive) | GI50 (BT-549): 27.8 µM (inactive) | GI50 (NCI-H226): > 100 µM (inactive) | GI50 (COLO 205): > 100 µM (inactive) | GI50 (MOLT-4): > 100 µM (inactive) | GI50 (HL-60): > 100 µM (inactive) | GI50 (OVCAR-8): 37.8 µM (inactive) | GI50 (T47D): 8.75 µM (inactive) | GI50 (MDA-MB-231): 17.4 µM (inactive) | GI50 (SN12C): > 100 µM (inactive)
